Experiment [1] concerns S. aureus mgrA mutant (mgrA-) strain. The experiment can be described thus: MIC measurement, susceptibility of mgrA mutant strain to fluoroquinolones and vancomycin. It counts as cell-based. To be noted: Staphylococcus aureus. On the procedure:
(§1) S. aureus cells were serially diluted and an equal number of cells was spotted on a plate containing various concentrations of antibiotics. The S. aureus strain Newman (wild-type) and the mutant strains mgrA- and mgrH1- (knock outs) were tested.

Experiment [2] deals with S. aureus strain Newman (wild-type). In words: MIC measurement, susceptibility of wild-type strain to fluoroquinolones and vancomycin. It counts as cell-based. Conditions: Staphylococcus aureus. On the procedure:
as §1

The target of experiment [3] is T1, MgrA (Staphylococcus aureus, UniProt Q99VT5).
T1 sequence (Q99VT5 1-147): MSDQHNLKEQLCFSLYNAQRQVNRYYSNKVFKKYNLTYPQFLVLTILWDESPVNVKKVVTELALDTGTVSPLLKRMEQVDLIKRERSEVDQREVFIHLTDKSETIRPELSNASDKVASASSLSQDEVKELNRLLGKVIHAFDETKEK
The experiment can be described thus: Alkylation of Cys12 in MgrA, DTNB assay for free thiol content. It counts as biochemical, S. aureus. Further details: His6 (N, cleaved yes); made in house; host or cells: E. coli BL21(DE3). Conditions: 8 equivalents alkylator, 0.05 mM MgrA in water, pH 7.4, 1 h, r.t. The protocol:
Alkylation of Cys12 in MgrA in vitro and in vivo. In a study to test potential alkylation of Cys12 in MgrA, the inventors examined several alkylators (1-7, Table 3). Eight equivalents of alkylators were used to react with 0.05 mM MgrA in water for 1 h at pH 7.4 at room temperature. Alkylation of Cys12 was determined by DTNB assay for free thiol content. […] Over 95% of cysteine thiols were alkylated by compound 7 after 1 h of reaction.

In another experiment the test system is S. aureus Newman strain. In words: Antibiotic sensitivity assay of S. aureus under oxidative stress or alkylator treatment. The class given is cell-based, Staphylococcus aureus.
In a further experiment the test system is norA gene. The experiment can be described thus: qRT-PCR of norA gene activation. The class given is cell-based, S. aureus. Conditions: Newman strain. The protocol: Lanes 1 and 2, purified MgrA (2 μM) with a 40 bp oligonucleotide (0.4 pmol) containing the MgrA binding sequence on the sarV promoter region; lanes 3 and 4, MgrA was treated with 100 equivalents of phenyl vinyl sulfone (7) for 30 min (lane 3) or 60 min (lane 4) before mixed with DNA and applied for the shift assay. FIGS. 13A-B: The Cys-alkylator phenyl vinyl sulfone (PVS) has similar effects on MgrA as hydrogen peroxide. (FIG. 13A) Treatment of the Newman strain with PVS turned on resistance of the pathogen towards vancomycin. (FIG. 13B) The norA gene is repressed by MgrA; however, treatment of the Newman strain with either H2O2 or PVS can turn on this gene.
Activation of MgrA by phenyl vinyl sulfone (PVS) inside S. aureus was tested. […] To further confirm the effect of PVS, the inventors monitored activation of the norA gene known to be repressed by MgrA. […] The next challenge is to develop vinyl sulfones that have high affinity and specificity toward MgrA. Of course, a non-covalent modulator that can activate MgrA with high sensitivity and specificity via direct binding is also highly desirable.

Experiment [4] addresses T1, MgrA. Conditions: 4 equiv oxidant, 10 min, r.t.
Another experiment deals with T2, MgrH1 (Staphylococcus aureus, UniProt Q2FVN3).
T2 sequence (Q2FVN3 1-148): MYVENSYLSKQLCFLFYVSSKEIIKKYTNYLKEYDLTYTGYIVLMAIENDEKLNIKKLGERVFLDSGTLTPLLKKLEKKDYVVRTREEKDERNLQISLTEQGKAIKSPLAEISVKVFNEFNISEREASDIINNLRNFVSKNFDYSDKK
To be noted: 4 equiv oxidant, 10 min, r.t.

For a further experiment, the target named is T3, SarA (Staphylococcus aureus, UniProt P0C1U6).
T3 construct: made in house
T3 sequence (P0C1U6 1-124): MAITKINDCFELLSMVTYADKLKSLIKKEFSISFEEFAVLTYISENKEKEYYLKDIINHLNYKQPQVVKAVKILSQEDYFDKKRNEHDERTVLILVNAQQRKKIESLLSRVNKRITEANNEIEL
The experiment can be described thus: Oxidation of Cys9 in SarA by oxidants. The class given is biochemical, S. aureus. To be noted: 100 equiv oxidant, 30 min, r.t. The text has this:
SarA may adopt an oxidation sensing mechanism similar to MgrA. Cys9 in SarA might be oxidized by ROS or other reactive species which could lead to its dissociation from DNA and activation of the sarA regulon. To test this hypothesis, they cloned, expressed, and purified SarA.

Another experiment relates to splB gene. Conditions: Newman strain, 0.4 mM, 30 min, qRT-PCR.
Experiment [5] addresses T1, MgrA. The experiment can be described thus: Binding assays of MgrA with antibiotics. More on the design: His6 (N, cleaved yes); made in house; host or cells: E. coli BL21(DE3); species or system S. aureus. The text has this: The regulation mechanism of MgrA. […] The inventors were very intrigued by what they had learned about MgrA: • i) MgrA is a DNA binding protein based on its structure and gel shift experiments. • ii) MgrA regulates S. aureus responses to fluoroquinolones (CIP and NOR, FIG. 1), vancomycin, and oxacillin (data not shown). […] Therefore, MgrA must sense some other host or environmental signals. The mechanistic issue for MgrA frustrated the inventors after they obtained the first crystal structure of this protein. Numerous binding assays were peformed to test a variety of hypotheses. A breakthrough came from a careful inspection of the MgrA structure and its sequence, when it was noticed that there is only one Cys residue present in the entire MgrA sequence, at position 12. This Cys residue, located in the N-terminal α1, is precisely in the dimerization domain (FIG. 4A) and seems to play an important role in orienting the MgrA dimer conformation. Each monomer presents its Cys12 to be recognized through hydrogen bonding to Ser113 and Tyr38 from the other monomer (FIG. 4B).

Here are results for 11 compounds from patent publication US20070248581A1, “MGRA IS A REDOX REGULATOR OF ANTIBIOTIC SENSITIVITY AND VIRULENCE” (priority 2006, published 2007).

The structures appear in SMILES notation. Values after ≈ are worked out from the molar mass of the structure shown.

Experimental for S. aureus Newman strain: The change of susceptibility levels of S. aureus strains toward ciprofloxacin and vancomycin under oxidative stress. The antibiotic resistance levels were tested in the absence (−H2O2) or presence (+H2O2) of 100 μM H2O2 by a plate sensitivity assay (FIG. 7A) and were also determined in the absence (−PQ) or presence (+PQ) of 25 μM paraquat by a 96-well-plate sensitivity assay (FIG. 7B). […] Empty bars are non-treated cultures. Results are mean ±s.d. from three independent experiments performed in duplicate.
Five strains were used to test oxidation responses in vivo: the wild-type Newman, the mgrA- mutant (knock out), the mgrA- mutant complemented with mgrA cloned in a plasmid pYJ335, the mgrA- mutant complemented with mgrAC12S in pYJ335, and the control mutant strain with pYJ335.
The susceptibility levels of all five strains toward CIP and VCM were also evaluated in the absence and presence of paraquat (PQ), another reagent known to cause oxidative stress in vivo (FIG. 7B).
Text for splB gene: (FIG. 10C) Monitoring in vivo effects of SarA oxidation by qRT-PCR.
The inventors also monitored activation of a virulence gene splB in S. aureus.

Take `O=C(O)c1cn(C2CC2)c2cc(N3CCNCC3)c(F)cc2c1=O` [CIP, ciprofloxacin]: the MIC in [1] was 0.7 µg/mL (≈ 2.11 µM); in experiment [2], 0.35 µg/mL (≈ 1.06 µM).
Take `CCOC(=O)CI` [Compound 2]: at MgrA [3], the “Alkylation percentage (Cys12 of MgrA)” value was above 95%.
Turning to `O=C(CI)c1ccccc1` [Compound 3], at MgrA [3], the “Alkylation percentage (Cys12 of MgrA)” value was above 95%.
Take `O=C1C=CC(=O)N1` [Compound 4]: the “Alkylation percentage (Cys12 of MgrA)” value at MgrA [3] is on record as above 95%.
Still for that read-out and setting: under `c1ccc(OCC2CO2)cc1` (centres unmarked) [Compound 5] stands 48%; under `c1ccc(CC2CO2)cc1` (centres unmarked) [Compound 6], 59%.
With `C=CS(=O)(=O)c1ccccc1` [Compound 7, phenyl vinyl sulfone], the “Change of resistance to vancomycin” value in the experiment on S. aureus Newman strain (25 μM PVS, Newman strain) is “enhanced resistance to vancomycin”. Moreover, in the experiment with norA gene, the “Activation of norA gene” value is “activated norA as efficient as H2O2”.
On to `OO` [Compound H2O2, hydrogen peroxide], for which the “Oxidation of MgrA (Cys12)” value on MgrA [4] is 4 equiv, 10 min, 65%. Further, the “Oxidation of MgrH1 (Cys13)” value on MgrH1 was 4 equiv, 10 min, 71%. Further, at SarA, the “Oxidation of SarA (Cys9)” value is listed as 15% oxidation at r.t. Further, the “Change of resistance toward CIP and VCM” value with S. aureus Newman strain (100 μM H2O2, Newman strain, plate sensitivity assay) was “increased resistance”. In the experiment with splB gene, the “Activation of splB gene” value is “activated”.
With `CCn1cc(C(=O)O)c(=O)c2cc(F)c(N3CCNCC3)cc21` [NOR, norfloxacin], the minimum inhibitory concentration (MIC) in [1] worked out at 1.4 µg/mL (≈ 4.38 µM); in experiment [2], 0.7 µg/mL (≈ 2.19 µM).
As to `C[n+]1ccc(-c2cc[n+](C)cc2)cc1` [PQ, paraquat], the “Change of resistance toward CIP and VCM” value with S. aureus Newman strain (25 μM paraquat, Newman strain, 96-well-plate sensitivity assay) was “increased antibiotic resistance”.
Consider `CN[C@H](CC(C)C)C(=O)N[C@H]1C(=O)N[C@@H](CC(N)=O)C(=O)N[C@H]2C(=O)N[C@H]3C(=O)N[C@H](C(=O)N[C@H](C(=O)O)c4cc(O)cc(O)c4-c4cc3ccc4O)[C@H](O)c3ccc(c(Cl)c3)Oc3cc2cc(c3O[C@@H]2O[C@H](CO)[C@@H](O)[C@H](O)[C@H]2O[C@H]2C[C@](C)(N)[C@H](O)[C@H](C)O2)Oc2ccc(cc2Cl)[C@H]1O` [VCM, vancomycin], for which the minimal inhibitory concentration (MIC) worked out at 2.4 µg/mL (≈ 1.66 µM) in experiment [1] and 1.2 µg/mL (≈ 0.828 µM) in experiment [2]. Also, the “Binding to MgrA” value at MgrA [5] is listed as “does not bind”.
